Laboratory results published in PMC4152014, “Glucagon-Like Peptide-1 Receptor Ligand Interactions: Structural Cross Talk between Ligands and the Extracellular Domain” (PLoS ONE, 2014).
“Also recorded” adds a separate entry of the source.

What was measured:
[1] = tested on: nGLP-1R (N-terminal extracellular domain of GLP-1R, amino acids 24-145); assay: Differential HDX of the nGLP-1R peptide […] in the presence of ligands; format: binding; conditions: HDX-MS; for average change in % Deuterium (Δ %D) in nGLP-1R peptide WETVQKWRE: 7TM HDX buffer pH 7.5 (50 mM Hepes, 150 mM NaCl, 2% glycerol, 0.05% DDM, 0.01% CHS), stock 10 µM nGLP-1R, peptide ligands 20 µM or small molecules 100 µM, 1 h equilibration at 4°C, on-exchange 10-3600 s, 80% D2O, 4°C, 3-4 replicates, back exchange corrected with estimated 70% recovery; for protection to exchange of nGLP-1R (result in words): peptides spanning Trp32 to Glu40 of nGLP-1R, DDM/CHS micelles, pH 7.5, 4°C, significance P < 0.05 at two consecutive time points
Description: (§1) Exendin-4 (cat # E7144), HPLC grade H2O, D2O (99.9%), acetonitrile, formic acid, tris-(carboxyethyl)-phosphinehydrochloride (TCEP), NaCl, NaH2PO4 and glycerol were purchased from Sigma-Aldrich. Exendin-4[9-39] […] The GLP-1R ligands 6-BPPI (6-(2,5-dichlorobenzyl)-1-hydroxy-2-(2-morpholin-4-ylethyl)-1,6-dihydropyrrolo[3′,4′:5,6]pyrido[3,4-B]indol-3(2H)-one), Boc-5 [23], T-0632 (sodium (S)-3-[1-(2-fluorophenyl)-2,3-dihydro-3-[(3-isoquinolinyl-carbonyl)amino]-6-methoxy-2-oxo-1H-indole]propanoate), [25] and TT15 (2S)-2-[[(8S)-7-benzoyl-3-[4-[(3,4-dichlorophenyl)methoxy]phenyl]-2-oxo-1,6,8,9-tetrahydropyrido[4,3-g][1,4]benzoxazine-8-carbonyl]amino]-3-[4-(4-cyanophenyl)phenyl]propanoic acid) were synthesized according to standard or published methods at Eli Lilly. Trifluoroacetic acid (TFA, Sequanal grade) was obtained from Pierce. High purity n-dodecyl-β-D-maltoside (DDM) and cholesterol hemisuccinate (CHS) were purchased from Avanti Polar Lipids. The porcine pepsin-immobilized POROS 20 AL beads (particle size 20 µm) used to pack immobilized pepsin columns were purchased from Applied Biosystems. The model peptide for gas phase scrambling experiments, […], was purchased from the American Peptide Company (#350416).

[2] = tested on: nGLP-1R (N-terminal extracellular domain of GLP-1R, amino acids 24-145); assay: Differential HDX of peptide ligands in the presence vs absence of nGLP-1R; format: binding; conditions: HDX-MS, stock 10 µM peptide with or without 20 µM nGLP-1R, DDM/CHS micelles, pH 7.5, 4°C; for protection to exchange of ligand amides near helix bend / FxxWL motif upon binding nGLP-1R: 10-3600 s, protection confined from Ala18 to Asn28
Description: as §1

[3] = tested on: nGLP-1R (N-terminal extracellular domain of GLP-1R, amino acids 24-145); assay: Single amino acid resolution HDX by ETD of Phe22-Ser39 peptic peptide; format: binding; conditions: DDM/CHS micelles
Protocol: To optimize the instrument parameters and to monitor gas-phase scrambling, we employed the model peptide […] described by the Jorgensen group. Complete deuteration was achieved by incubation of the peptide in deuterated buffer (20 mM NaH2PO4, pH 2.6) for one hour at 4°C. HDX off-exchange was initiated by a 10-fold dilution into infusion buffer (50% MeOH, 0.5 M CH3COOH, pH 2.6) followed by elution over the same LC configuration used for HDX after 30 s of off-exchange. Under these conditions the peptide eluted in ∼1.6 minutes. Full-scan and ETD MS/MS spectra were acquired on the LTQ Orbitrap XL ETD. Instrument conditions were identical to those published previously except the capillary temperature was set to 75°C. Varying isolation widths and capillary temperatures were tested to minimize scrambling and maintain ion signal intensity (Figure S3). A capillary temperature of 75°C and isolation width of 12 amu was used for ETD of exendin-4[9-39]. Five replicates were run after 30 s of deuterium exchange for exendin-4[9-39] in the presence and absence of nGLP-1R on the same LC configuration described above.

[4] = tested on: extracellular domain of GLP-1R; conditions: cited from earlier work
[5] = pH 7.5
Protocol: All stock solutions and dilutions were made using the 7TM HDX buffer. The 7TM HDX buffers were composed of 50 mM Hepes (pH 7.5), 150 mM NaCl, 2% (v/v) glycerol, 0.05% (m/v) DDM, and 0.01% (m/v) CHS in either H2O or in D2O for on-exchange. All HDX stock solutions of the N-terminal extracellular domain of the glucagon-like peptide-1 receptor (nGLP-1R) were prepared at 10 µM nGLP-1R in the 7TM HDX H2O buffer. […] All HDX stock solutions of the peptides were at 10 µM. When ligands were studied in the presence of the nGLP-1R the stock solutions contained 20 µM nGLP-1R. When ligands and receptor were mixed in stock solutions they were allowed to equilibrate for one hour at 4°C.
Solution-phase amide HDX was carried out with a fully automated system described previously [17]. […]
Mass spectra were acquired in the range of m/z 300–2000 at a resolution of 60,000 for 8 min in positive ion mode on an LTQ Orbitrap XL ETD mass spectrometer (Thermo Fisher Scientific) equipped with an ESI source operated at capillary temperature of 225°C and spray voltage of 3.5 kV. The intensity weighted average m/z value (centroid) of each peptide's isotopic envelope was calculated with in-house developed software; Workbench (Pascal et al. 2013) and converted to % Deuterium values. […]

[6] = tested on: chimera nGIP-R:GLP-1R (amino acids 1-124 of GIP-R (NP_000155) fused in-frame with amino acids 137-463 of GLP-1R); assay: cAMP accumulation in HEK293 cells transfected with chimera nGIP-R:GLP-1R; format: cell-based; conditions: GIPR/GLP-1R chimera, EC50 to EC80 concentrations of GLP-1
Protocol: (§2) cAMP accumulation assays were performed as previously described. HEK293 cells were transfected with plasmids expressing either wild-type GLP-1R (NP_002053) or chimera nGIP-R:GLP-1R (amino acids 1-124 of GIP-R (NP_000155) fused in-frame with amino acids 137-463 of GLP-1R).
(§3) Figure 4 Changes to HDX of nGLP-1R in the Presence of Peptide and Small Molecule Ligands. […] Deuterium exchange was measured in the presence of DDM/CHS micelles as indicated in the Experimental section The exendin-4[9-39] peptide ligand is colored gray. B) Table showing the average change in % Deuterium in this same nGLP-1R peptide ([…]) for four peptide ligands and four proposed small molecule ligands.

[7] = target: T1, wild-type GLP-1R (NP_002053) (Homo sapiens, UniProt P43220); assay: cAMP accumulation in HEK293 cells transfected with wild-type GLP-1R; format: cell-based; conditions: for IC50: IC50, antagonism of GLP-1 induced cAMP accumulation
T1 construct: HEK293 cells were transfected with plasmids expressing either wild-type GLP-1R (NP_002053); expressed in transfected cells; host or cells: HEK293
T1 sequence (P43220 24-463): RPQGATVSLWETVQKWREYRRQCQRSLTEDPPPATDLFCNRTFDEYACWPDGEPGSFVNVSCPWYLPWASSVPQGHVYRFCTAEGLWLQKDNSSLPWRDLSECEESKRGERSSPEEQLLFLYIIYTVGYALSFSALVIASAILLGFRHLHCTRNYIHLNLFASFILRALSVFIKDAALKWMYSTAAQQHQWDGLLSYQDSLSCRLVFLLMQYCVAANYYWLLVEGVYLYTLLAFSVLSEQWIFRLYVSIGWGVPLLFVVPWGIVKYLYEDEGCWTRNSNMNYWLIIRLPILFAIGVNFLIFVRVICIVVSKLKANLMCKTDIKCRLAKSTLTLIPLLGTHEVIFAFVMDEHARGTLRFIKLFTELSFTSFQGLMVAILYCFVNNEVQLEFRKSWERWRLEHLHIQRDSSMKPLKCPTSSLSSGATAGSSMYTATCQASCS
Protocol: as §2, §3

[8] = 30 s of exchange, apo vs nGLP-1R bound, 5 replicates

**Q.** What does the source list for `COc1cc(C2C(NC(=O)c3ccc(NC(=O)OC(C)(C)C)cc3)(C(=O)O)C(c3ccc(OC(=O)c4cccs4)c(OC)c3)C2(NC(=O)c2ccc(NC(=O)OC(C)(C)C)cc2)C(=O)O)ccc1OC(=O)c1cccs1` (centres unmarked) [Boc-5]?
**A.** average change in % Deuterium (Δ %D) in nGLP-1R peptide WETVQKWRE [1]: -12%; protection to exchange of nGLP-1R (result in words) [1]: thermodynamic stabilizing interactions

**Q.** For “exendin-4[9-39]: N-terminal truncated exendin-4, a potent antagonist; Bachem cat # H-8740”, which “protection to exchange of ligand amides near helix bend / FxxWL motif upon binding nGLP-1R” value [2] is on record?
**A.** showed protection to their hydrogen bonding network around the FxxWL motif

**Q.** And the “deuterium incorporation for fragments from Trp25 to Asn28, absence of nGLP-1R” value ([3]; 30 s of exchange, apo state, 5 replicates)?
**A.** increasing deuterium incorporation for fragments from Trp25 to Asn28

**Q.** What about the “change in deuterium incorporation at Asn28 turn in the presence of nGLP-1R” value [3, 8] of the same compound?
**A.** small but statistically significant increase in deuterium incorporation

**Q.** What about the “protection at Trp25, Leu26 and Lys27 by nGLP-1R” value [3, 8] of the same compound?
**A.** Significant protection

**Q.** What about the “deuterium exchanged at amide of Asn28 in the presence of nGLP-1R” value ([3]; exendin-4[9-39] with nGLP-1R, after 30 s of exchange, average of 5 replicates) of the same compound?
**A.** 0.33 deuterium

**Q.** And the “average change in % Deuterium (Δ %D) in nGLP-1R peptide WETVQKWRE” value (“average change in % Deuterium (Δ %D)” below) [1]?
**A.** -20%

**Q.** And the “protection to exchange of nGLP-1R (result in words)” value (“protection to exchange of nGLP-1R” below) [1]?
**A.** significant protection to exchange

**Q.** What about the “affinity for extracellular domain of GLP-1R (in words)” value [4] of the same compound?
**A.** high affinity

**Q.** What about the “deuterium incorporation / stability of hydrogen bonding network of the free peptide” value [5] of the same compound?
**A.** significantly destabilized in the presence of nonionic detergents as compared to the agonist exendin-4

**Q.** Which “average change in % Deuterium (Δ %D)” value [1] does the source give for “oxyntomodulin: peptide agonist, Bachem #H-6058” here?
**A.** -10%

**Q.** What about the “protection to exchange of nGLP-1R” value [1] of the same compound?
**A.** protection to exchange was observed

**Q.** With “exendin-4: GLP-1R peptide agonist, Sigma-Aldrich cat # E7144; DPP4 resistant mimetic” as the compound, how does the “change in deuterium exchange at N-terminal amino acids His1 to Glu17 upon binding nGLP-1R” value [2] read?
**A.** no statistically significant change in the magnitude of deuterium exchange

**Q.** And the “protection to exchange of ligand amides near helix bend / FxxWL motif upon binding nGLP-1R” value [2]?
**A.** showed protection to their hydrogen bonding network around the FxxWL motif

**Q.** And the “average change in % Deuterium (Δ %D)” value [1]?
**A.** -21%

**Q.** What about the “protection to exchange of nGLP-1R” value [1] of the same compound?
**A.** significant protection to exchange

**Q.** And the “affinity for extracellular domain of GLP-1R (in words)” value [4]?
**A.** high affinity

**Q.** What about the “deuterium incorporation / stability of hydrogen bonding network of the free peptide” value [5] of the same compound?
**A.** Lower deuterium incorporation was observed for all homologous peptides

**Q.** Which “antagonism of GLP-1 signalling (result in words)” value [6] does the source give for `O=C1c2ncc3c(c2C(O)N1CCN1CCOCC1)c1ccccc1n3Cc1cc(Cl)ccc1Cl` (centres unmarked) [6-BPPI, 6-(2,5-dichlorobenzyl)-1-hydroxy-2-(2-morpholin-4-ylethyl)-1,6-dihydropyrrolo[3′,4′:5,6]pyrido[3,4-B]indol-3(2H)-one] here?
**A.** not GIPR/GLP-1R; also recorded: inactive on a chimeric receptor

**Q.** What about the “antagonism of GLP-1 signalling (result in words)” value ([7]; HEK293 cells, EC50 to EC80 concentrations of GLP-1) of the same compound?
**A.** Dose-dependent blockade of GLP-1R signalling; also recorded: effective antagonist of the GLP-1R

**Q.** And the IC50 ([7]; 10 pM GLP-1, HEK293 cells)?
**A.** 33 nM

**Q.** And the IC50 ([7]; 30 pM GLP-1, HEK293 cells)?
**A.** 110 nM

**Q.** And the IC50 ([7]; 100 pM GLP-1, HEK293 cells)?
**A.** 310 nM

**Q.** And the “average change in % Deuterium (Δ %D)” value [1]?
**A.** -27%

**Q.** What about the “protection to exchange of nGLP-1R” value [1] of the same compound?
**A.** thermodynamic stabilizing interactions
